The source of these data is patent publication US10975142B2, “Endotrophin neutralization and use thereof” (THE BOARD OF REGENTS OF THE UNIVERSITY OF TEXAS SYSTEM, priority 2013, dated 2021).

In one experiment the test system is PyMT mice. Briefly: high dosage cisplatin in PyMT mice. The class given is in vivo, mouse. To be noted: cisplatin 2.5 mg/kg, ip. twice a week. Here is the method: FIGS. 20A-20C. Endotrophin overexpression confers cisplatin resistance in PyMT mice. FIG. 20A. 10-weeks-aged PyMT and PyMT/endotrophin (PyMT/ETP) mice were given high dosage of cisplatin (2.5 mg/kg, ip., 2 times/week). Tumor growth was determined by caliper measurements. Data represent mean±SD (n=7-10/group). ***p<0.001, PyMT/CIS vs. PyMT/ETP/CIS by 2-way ANOVA. FIGS. 20B-20C. A piece of tumors taken from PyMT (Ctrl-tumor) and PyMT/endotrophin (ETP^+-tumor) mice were implanted into isogenic wild-type hosts. Cisplatin (1 mg/kg, ip., 2 times/week) were injected at 3-weeks post implantation for tumor progression. Tumor volume was determined by caliper measurement. […] Data represent mean±SD (n=7-8/group). *p<0.05 vs. Ctrl-tumors by 2-way ANOVA. Representative images were taken at 70-days post implantation. Scale: 10 mm.

Experiment [1] deals with diet induced obese (DIO) mice. Briefly: diet induced obese mice, hyperinsulinemic-euglycemic clamp. The class given is in vivo. To be noted: 10B6 100 μg/mouse vs IgG. The procedure:
FIGS. 24A-24D: Endotrophin neutralization improves the metabolic phenotype. FIG. 24A. Two cohorts of mice (n=8) were exposed to high fat diet for 45 days after weaning. At the indicated time points (arrowheads), mice were treated with anti-endotrophin monoclonal antibodies (100 μg/mouse) or equivalent amounts of non-immune antibody. Body weights were monitored. FIG. 24B. Glucose infusion rate and FIG. 24C. Suppression of hepatic glucose efflux was measured in a hyperinsulinemic euglycemic clamp. FIG. 24D. Table of parameters measured prior and during the clamp. Significant differences as indicated by unpaired student t-test.
To evaluate the therapeutic potential of endotrophin neutralizing monoclonal antibodies on metabolic perspectives, diet induced obese (DIO) mice were chronically treated with either IgG control or 10B6 (rat anti-mouse endotrophin monoclonal antibody) via intraperitoneal injection at 2 weeks after high-fat diet (HFD) challenge and maintained them on a HFD with antibody treatment for another 4 weeks. […] Strikingly, 10B6 treated DIO mice improved whole-body insulin sensitivity, as determined by the amount of glucose required to maintain euglycemia (FIG. 24B) and by the amount of suppression of hepatic glucose efflux (FIGS. 24C and D).

Take `N.N.[Cl][Pt][Cl]` [cisplatin, cis-diammine-dichloro-platinum]: the “primary tumor growth of PyMT mice” value with PyMT mice is given as “effectively curbed”.

B1: 10B6: rat anti-mouse endotrophin monoclonal antibody; light chain variable SEQ ID NO: 2, heavy chain variable SEQ ID NO: 4 (antibody, V domains shown)
VH: QVQLQQSGPELAKPGSSVKISCKASGYTFTSYEMHWIKQRPGQGLEWIGYIYPESGSTGYNEKFKGKATLTVDKSSPTAYMQLSSLTPDNSAVYFCTRGLRVLGYVMDVWGHGTSVTVSS
VL: DVQLTQSPSFLSASVGDRVTINCKASQNINKYLNWYQQKLGEAPKRLIYNTNNLQTGIPSRFSGSASGTDYTLTISSLHPEDFATYFCLQHSSLYTFGAGTKLELK
Consider B1, for which the “whole-body insulin sensitivity (glucose required to maintain euglycemia, suppression of hepatic glucose efflux)” value in experiment [1] was “improved”.
